Experimental data taken from US9120781B2, “Selective glycosidase inhibitors and uses thereof” (Simon Fraser University, priority 2010, dated 2015).

Target: human O-GlcNAcase (Homo sapiens (Human), UniProt O60502)
Test: Assay for determination of KI values for inhibition of O-GlcNAcase activity (fluorescence-based hOGA)
Format: biochemical
Conditions: purified human O-GlcNAcase, 4-Methylumbelliferyl N-acetyl-β-D-glucosaminide substrate, pH 7.0, Cheng-Prusoff
Description: Assay for Determination of KI Values for Inhibition of O-GlcNAcase Activity
Experimental Procedure for Kinetic Analyses:
Enzymatic reactions are carried out in a reaction containing 50 mM NaH2PO4, 100 mM NaCl and 0.1% BSA (pH 7.0) using 2 mM 4-Methylumbelliferyl N-acetyl-β-D-glucosaminide dihydrate (Sigma M2133) dissolved in ddH2O, as a substrate. The amount of purified human O-GlcNAcase enzyme used in the reaction is 0.7 nM. Test compound of varying concentrations is added to the enzyme prior to initiation of the reaction. The reaction is performed at room temperature in a 96-well plate and is initiated with the addition of substrate. The production of fluorescent product is measured every 60 sec for 45 min with a Tecan Infinite M200 plate-reader with excitation at 355 nm and emission detected at […], with 4-Methylumbelliferone (Sigma M1381) used to produce a standard curve. The slope of product production is determined for each concentration of compound tested and plotted, using standard curve fitting algorithms for sigmoidal dose response curves. The values for a four parameter logistic curve fit of the data are determined.

Chain of human O-GlcNAcase (O60502 whole entry): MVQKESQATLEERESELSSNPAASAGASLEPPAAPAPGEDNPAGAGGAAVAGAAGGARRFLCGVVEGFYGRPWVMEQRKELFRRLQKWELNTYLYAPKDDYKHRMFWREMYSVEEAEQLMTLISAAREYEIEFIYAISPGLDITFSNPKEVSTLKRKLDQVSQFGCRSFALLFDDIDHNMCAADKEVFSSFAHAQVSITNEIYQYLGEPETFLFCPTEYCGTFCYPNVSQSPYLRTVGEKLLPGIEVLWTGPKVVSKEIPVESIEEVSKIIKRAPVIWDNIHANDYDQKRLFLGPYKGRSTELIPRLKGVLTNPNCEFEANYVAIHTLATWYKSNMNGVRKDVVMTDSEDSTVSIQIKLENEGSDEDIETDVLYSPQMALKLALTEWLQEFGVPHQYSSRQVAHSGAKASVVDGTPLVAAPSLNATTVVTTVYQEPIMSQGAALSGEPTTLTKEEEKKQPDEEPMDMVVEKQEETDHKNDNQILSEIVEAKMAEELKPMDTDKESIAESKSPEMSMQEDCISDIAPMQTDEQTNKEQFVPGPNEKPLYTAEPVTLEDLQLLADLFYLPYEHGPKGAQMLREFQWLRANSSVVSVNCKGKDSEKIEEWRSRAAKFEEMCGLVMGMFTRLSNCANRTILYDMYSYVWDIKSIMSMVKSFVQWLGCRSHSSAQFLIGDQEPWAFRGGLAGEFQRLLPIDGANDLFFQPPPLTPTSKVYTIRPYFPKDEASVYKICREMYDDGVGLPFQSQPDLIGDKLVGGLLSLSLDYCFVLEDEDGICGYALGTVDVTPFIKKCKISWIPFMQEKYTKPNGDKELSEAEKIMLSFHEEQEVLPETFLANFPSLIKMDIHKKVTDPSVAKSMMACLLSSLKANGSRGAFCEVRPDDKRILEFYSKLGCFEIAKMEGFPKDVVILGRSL

Compound	Ki
CCNC1=N[C@@H]2[C@@H](O)[C@H](O)[C@@H](CO)C[C@@H]2O1 [Example 9, (3aR,4R,5R,6R,7aS)-2-(ethylamino)-6-(hydroxymethyl)-3a,4,5,6,7,7a-hexahydrobenzo[d]oxazole-4,5-diol]	0.6 nM
OC[C@H]1C[C@@H]2OC(N3CCC3)=N[C@@H]2[C@@H](O)[C@@H]1O [Example 18, (3aR,4R,5R,6R,7aS)-2-(azetidin-1-yl)-6-(hydroxymethyl)-3a,4,5,6,7,7a-hexahydrobenzo[d]oxazole-4,5-diol]	0.13 nM
CN(C)C1=N[C@@H]2[C@@H](O)[C@H](O)[C@@H](CO)C[C@@H]2S1 [Example 22, (3aR,4R,5R,6R,7aS)-2-(dimethylamino)-6-(hydroxymethyl)-3a,4,5,6,7,7a-hexahydrobenzo[d]thiazole-4,5-diol]	0.5 nM
CN(C)C1=N[C@H]2[C@H](O)[C@@H](O)[C@H](CO)C[C@H]2S1 [Example 23, (3aS,4S,5S,6S,7aR)-2-(dimethylamino)-6-(hydroxymethyl)-3a,4,5,6,7,7a-hexahydrobenzo[d]thiazole-4,5-diol]	484 nM
CNC1=N[C@@H]2[C@@H](O)[C@H](O)[C@@H](CO)C[C@@H]2S1 [Example 26, (3aR,4R,5R,6R,7aS)-2-(methylamino)-6-(hydroxymethyl)-3a,4,5,6,7,7a-hexahydrobenzo[d]thiazole-4,5-diol]	0.2 nM
OC[C@H]1C[C@@H]2OC(NCCF)=N[C@@H]2[C@@H](O)[C@@H]1O [Example 32, (3aR,4R,5R,6R,7aS)-2-((2-fluoroethyl)amino)-6-(hydroxymethyl)-3a,4,5,6,7,7a-hexahydrobenzo[d]oxazole-4,5-diol 2,2,2-trifluoroacetate]	2.5 nM
